Data reported in US11613542B2, “Sulfonylureas and sulfonylthioureas as NLRP3 inhibitors” (Inflazome Limited, priority 2017, dated 2023).
Structures can show the parent of a compound that is named as a salt.

Tests used:
[1] = molecular target: T1, NLRP3 (Homo sapiens, UniProt Q96P20); test: THP-1 cells pyroptosis assay; type: cell-based; design: Seed THP-1 cells (25,000 cells/well) containing 1.0 μg/ml LPS; host or cells: THP-1 cells, LPS-primed, nigericin-stimulated; conditions: THP-1 cells, 1.0 μg/ml LPS, compound 3 hrs, nigericin 5 μM 1 hr, resazurin readout; read-out: THP IC50
How it was run: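 THP-1 cells (25,000/well) in serum-free RPMI with 1.0 μg/ml LPS, treated with compound (8-point half-log dilution, 10 μM top, 0.1% DMSO), then nigericin 5 μM final. Viability read by resazurin (100 μM final, 1-2 h, 37° C) fluorescence Ex 560/Em 590 nm; IC50 from 4-parameter variable-slope fit.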

[2] = Pharmacokinetic parameters in male Sprague Dawley rats (intravenous and oral administration); type: in vivo; conditions: dose per compound (mg/kg); for AUC / Cl / T1/2 / Vdss / Cl/F / Cmax / Tmax: rat plasma; for bioavailability: rat
How it was run: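 IV dosing via tail vein (solution in water or DMSO:PBS 10:90) and oral dosing (water or DMSO:water 10:90); some oral groups fasted overnight. Serial plasma sampled at 8, 9 or 12 time-points up to 24 h post dose. PK parameters derived from LC-MS/MS plasma concentrations.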

[3] = molecular target: T1, NLRP3; test: Human whole blood IL1β release assay; type: cell-based; design: Human whole blood in Li-heparin tubes was obtained from healthy donors; from tissue; host or cells: human whole blood from healthy donors, LPS-primed, nigericin-stimulated; conditions: human whole blood, 1 μg/ml LPS, compound 3 hrs, nigericin 10 μM 1 hr, IL-1β AlphaLisa; read-out: HWB IC50
How it was run: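 Healthy-donor human whole blood (Li-heparin) primed with 1 μg/ml LPS, with compound (8-point half-log, 10 μM top) or 0.1% DMSO for 3 h at 37 °C, then 10 μM nigericin (final) for 1 h. Supernatant IL-1β read by AlphaLISA; IC50 from 4-parameter variable-slope fit.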

T1 sequence (Q96P20 whole entry): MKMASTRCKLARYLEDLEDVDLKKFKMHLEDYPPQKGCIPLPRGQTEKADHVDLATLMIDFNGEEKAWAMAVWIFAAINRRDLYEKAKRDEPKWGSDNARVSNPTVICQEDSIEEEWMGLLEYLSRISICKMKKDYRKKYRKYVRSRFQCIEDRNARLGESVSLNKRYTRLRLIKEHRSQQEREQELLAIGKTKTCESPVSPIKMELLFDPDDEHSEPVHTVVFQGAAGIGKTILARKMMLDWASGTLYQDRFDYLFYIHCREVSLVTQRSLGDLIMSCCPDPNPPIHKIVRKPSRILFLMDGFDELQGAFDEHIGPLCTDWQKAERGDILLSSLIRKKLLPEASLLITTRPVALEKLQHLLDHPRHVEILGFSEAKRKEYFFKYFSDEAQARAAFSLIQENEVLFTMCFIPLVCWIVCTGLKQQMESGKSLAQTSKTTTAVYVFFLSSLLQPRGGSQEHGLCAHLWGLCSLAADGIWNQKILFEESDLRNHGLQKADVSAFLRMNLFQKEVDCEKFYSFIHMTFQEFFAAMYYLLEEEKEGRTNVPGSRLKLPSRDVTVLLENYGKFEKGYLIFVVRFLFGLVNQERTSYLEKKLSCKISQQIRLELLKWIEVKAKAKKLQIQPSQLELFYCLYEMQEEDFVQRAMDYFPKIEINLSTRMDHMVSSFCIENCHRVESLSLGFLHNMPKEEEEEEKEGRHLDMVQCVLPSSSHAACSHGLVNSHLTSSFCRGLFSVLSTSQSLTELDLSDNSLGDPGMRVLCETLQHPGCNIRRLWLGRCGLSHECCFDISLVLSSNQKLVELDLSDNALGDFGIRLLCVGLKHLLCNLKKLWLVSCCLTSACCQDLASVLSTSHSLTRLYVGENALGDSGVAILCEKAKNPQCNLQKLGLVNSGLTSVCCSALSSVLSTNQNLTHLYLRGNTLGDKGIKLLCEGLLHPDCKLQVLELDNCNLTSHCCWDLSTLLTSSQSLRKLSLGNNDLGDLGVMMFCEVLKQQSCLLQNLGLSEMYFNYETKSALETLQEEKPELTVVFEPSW

SMILES | IC50 [1] [µM] | AUC ([2]; intravenous administration) [ng·h/mL] | Cl ([2]; intravenous administration) [mL/min/kg] | T1/2 ([2]; intravenous administration) [min] | Vdss ([2]; intravenous administration) [L/kg] | AUC ([2]; oral administration) [ng·h/mL] | Cl/F ([2]; oral administration) [mL/min/kg] | Cmax ([2]; oral administration) [ng/mL] | T1/2 ([2]; oral administration) [min] | Tmax ([2]; oral administration) [min] | bioavailability ([2]; oral administration) | IC50 [3] [µM]
CC(C)c1cc(F)cc(C(C)C)c1NC(=O)NS(=O)(=O)c1cc(C(=O)N(C)C)n(C)n1 [Example 160, 3-(N-((4-Fluoro-2,6-diisopropylphenyl)carbamoyl)sulfamoyl)-N,N,1-trimethyl-1H-pyrazole-5-carboxamide, sodium salt] | < 0.64 | 283.3 | 59.2 | 198 | 4.08 | 769.7 | 109.8 | 494.7 | 582 | 10.2 | 54.3 | < 0.4
CCN(C)C(=O)c1cc(S(=O)(=O)NC(=O)Nc2c3c(cc4c2CCC4)CCC3)nn1C [Example 162, N-Ethyl-3-(N-((1,2,3,5,6,7-hexahydro-s-indacen-4-yl)carbamoyl)sulfamoyl)-N,1-dimethyl-1H-pyrazole-5-carboxamide] | < 0.16 | 1723.1 | 25.0 | 6 | 0.24 | – | – | – | – | – | – | < 0.8
CC(C)c1cccc(C(C)C)c1NC(=O)NS(=O)(=O)c1cc(C(=O)N(C)C)n(C)n1 [Example 167, 3-(N-((2,6-Diisopropylphenyl)carbamoyl)sulfamoyl)-N,N,1-trimethyl-1H-pyrazole-5-carboxamide, sodium salt] | < 0.64 | 333.7 | 48.7 | 30 | 0.99 | – | – | – | – | – | – | < 0.4

Further lines, results first:

IC50 [1] [µM] | AUC ([2]; intravenous administration) [ng·h/mL] | Cl ([2]; intravenous administration) [mL/min/kg] | T1/2 ([2]; intravenous administration) [min] | Vdss ([2]; intravenous administration) [L/kg] | AUC ([2]; oral administration) [ng·h/mL] | Cl/F ([2]; oral administration) [mL/min/kg] | Cmax ([2]; oral administration) [ng/mL] | T1/2 ([2]; oral administration) [min] | Tmax ([2]; oral administration) [min] | bioavailability ([2]; oral administration) | IC50 [3] [µM] | SMILES
< 0.16 | 3389.9 | 24.8 | 1520 | 17.78 | 1052.0 | 49.5 | 599.6 | 204 | 15 | 62.0 | < 0.4 | CN(C)C(=O)c1cc(S(=O)(=O)NC(=O)Nc2c3c(cc4c2CCC4)CCC3)nn1C [Example 169, 3-(N-((1,2,3,5,6,7-Hexahydro-s-indacen-4-yl)carbamoyl)sulfamoyl)-N,N,1-trimethyl-1H-pyrazole-5-carboxamide, sodium salt]
< 0.16 | 786.6 | 114.1 | 18 | 2.37 | – | – | – | – | – | – | < 0.4 | CN(CCO)C(=O)c1cc(S(=O)(=O)NC(=O)Nc2c3c(cc4c2CCC4)CCC3)nn1C [Example 176, 3-(N-((1,2,3,5,6,7-Hexahydro-s-indacen-4-yl)carbamoyl)sulfamoyl)-N-(2-hydroxyethyl)-N,1-dimethyl-1H-pyrazole-5-carboxamide, partial ammonium salt]
